We go through seven molecules from paper PMC12562781 (International Journal of Molecular Sciences, 2025).

≈ marks a conversion by molar mass, not a printed value. Where two headings read alike, the source gives them in different places.

In series [1] the test system is human liver cancer cell lines (HepG2). Put plainly: MTT cytotoxicity assay, HepG2 cells. To be noted: HepG2, 24 h, read-out: IC50 Values, cytotoxicity, HepG2. How it is done: (§1) The cells were allowed to grow to 90% confluency in an incubator set at 37 °C containing 5% CO2, before they were trypsinized and cultured in 96-well tissue culture plates. Stock and final concentrations of the compounds were prepared in the culture media.
(§2) Just 5 h before the elapse of 24 h, 10 µL of 5 mg/mL MTT solution was added to each well, and the plates were further incubated. At the end of the incubation period, the media was removed from each well and replaced with 50 µL of DMSO. The plates were shaken on a rotating shaker for 10 min before taking readings at 560 nm using a microplate reader (Elisa Plate Reader, BioTek Instruments, Inc., Winooski, VT, USA). […] IC50 values were calculated from the graphs as compound concentrations that reduced the absorbance at 560 nm by 50% of the untreated control wells. To exclude background readings, three wells were seeded with untreated cells in which MTT was not added. Assays were performed in triplicate to ensure reproducibility. The percentage inhibitions of cell proliferation were calculated using the following formula:% Cytotoxicity = ((A − B)/A) × 100 where: A is the absorbance of the negative control (untreated cells). B is the absorbance of the treated cells.
(§3) Data were presented as the cumulative mean of each compound. Each compound was run in triplicate. GraphPad Prism (version 5) was used for statistical analysis of all data. For all the data, one-way analysis of variance (ANOVA) followed by Bonferroni’s multiple comparison tests was used to compare the means of one group with every other group. Statistical significance was set at 5%; thus, a p-value ≤ 0.05 was considered significant. Concentrations that inhibit cell proliferation by 50% (IC50) were calculated using Graphpad Prism 5 software.
On the technique in general: Tetrazolium dyes change colour on reduction, which living cells bring about.

The test system of series [2] is breast adenocarcinoma cancer cell lines (MDA). In words: MTT cytotoxicity assay, MDA cells. As to conditions: Homo sapiens, 24 h, read-out: IC50 Values, cytotoxicity, MDA. How it is done:
as §1, §2, §3

Series [3] is described as follows: MTT cytotoxicity assay, KMST-6 cells. The format is cell-based, human. As to conditions: human. The protocol:
(§4) Assays were performed in triplicate to ensure reproducibility. […] B is the absorbance of the treated cells.
(§5) Each compound was run in triplicate.

In series [4] the test system is human breast cancer cells (MDA-MB-231). The arrangement: method as in PMID 28231262. As to conditions: cited from earlier work.
Series [5] deals with Plasmodium. The arrangement: method as in PMID 24108397. To be noted: cited from earlier work.
For series [6], the system named is HL60 cells. The arrangement: method as in doi:10.1007/s00044-014-1093-y. As to conditions: cited from earlier work.
Series [7] has as its system Vero cells and human liver cancer cells. Set-up: method as in earlier work. To be noted: cited from earlier work.
In series [8] the test system is Funtumia africana. Set-up: method as in earlier work. As to conditions: cited from earlier work.
Series [9] concerns HT-29 cells. The arrangement: method as in PMID 24658565. To be noted: read-out: cytotoxic IC50, HT-29; cited from earlier work.
Series [10] has as its system human prostate cancer cell lines (PC3). In words: MTT cytotoxicity assay, PC3 cells. The protocol:
as §1, §2
Data were presented as the cumulative mean of each compound. Each compound was run in triplicate. GraphPad Prism (version 5) was used for statistical analysis of all data. […]

In series [11] the test system is non-cancerous human fibroblast cell lines (KMST-6). Put plainly: MTT cytotoxicity assay, KMST-6 cells. The format is cell-based. As to conditions: MTT, 24 h, 0.156 µM to 10 µM, triplicate; non-cancerous cells. How it is done:
as §4, §5

Series [12] deals with HeLa cells. Set-up: method as in PMID 24658565. To be noted: read-out: cytotoxic IC50, HeLa; cited from earlier work.
The test system of series [13] is MCF-7 cells. Set-up: method as in PMID 24658565. As to conditions: read-out: cytotoxic IC50, MCF-7; cited from earlier work.
In series [14] the test system is MDA-MB-231. To be noted: cited from earlier work.
Series [15] relates to HepG2. The arrangement: method as in PMID 24108397. To be noted: cited from earlier work.
Series [16] deals with Plasmodium berghei. Set-up: method as in PMID 24108397. To be noted: mice; cited from earlier work.
Series [17] relates to Hep-G2. As to conditions: cited from earlier work.
Series [18] relates to HEK293. Set-up: method as in PMID 24108397. As to conditions: cited from earlier work.

As a reminder, the IC50 is the point on the concentration scale where inhibition reaches its midpoint. Regarding `CC1(C)CC[C@]2(C(=O)O)CC[C@]3(C)C(=CC[C@@H]4[C@@]5(C)CC[C@H](O)C(C)(C)[C@@H]5CC[C@]43C)[C@@H]2C1` [Compound 2, oleanolic acid], the IC50 in series [1] was 1.2 µM; in series [2], 4.48 µM. Also, the IC50 at 24 h in series [3] (KMST-6 non-cancerous fibroblast cells, MTT, 24 h, 0.156 µM to 10 µM, triplicate, non-cancerous cells, read-out: IC50 Values, cytotoxicity, KMST-6) turned out to be 3.88 µM. Also, in [4], the “effect on cell migration” value is given as “clearly enhanced cell migration”.

Consider `COC1CCC2(C)C3CCC4(C)C(=CCC5(C)CCC(C)(C)CC54)C3(C)CCC2C1(C)C` (centres unmarked) [sawamilletin], for which the “anti-plasmodial IC50” value in series [5] (unit not given) was more than 100.

With `COC(=O)[C@]12CC[C@@H](C)[C@H](C)C1C1=CCC3[C@@]4(C)CC[C@H](OC(C)=O)C(C)(C)C4CC[C@@]3(C)[C@]1(C)CC2` (some centres unmarked) [Compound 5, 3-acetylursolic-methylate], the values for the IC50 in series [1] and in [2] were 0.85 µM and 1.9 µM, respectively. Moreover, the IC50 at 24 h in series [3] was more than 5 µM.

Usually MIC stands for the lowest concentration found to suppress growth. `COC(=O)[C@]12CC[C@@H](C)[C@H](C)[C@H]1C1=CC[C@@H]3[C@@]4(C)CC[C@H](O)C(C)(C)[C@@H]4CC[C@@]3(C)[C@]1(C)CC2` [Compound 4, ursolic-28-methylate]: the results for the IC50 in series [1] and in [2] were 1.6 µM and 2.48 µM, respectively. The “ED50, HL60” value in series [6] was 22.7 µg/mL (≈ 48.2 µM). The molecule also had an IC50 at 24 h in [3] of more than 5 µM. Also, the “cytotoxicity IC50” value in series [7] was 10.4 µg/mL. For the same molecule, in series [8], the MIC was 62.5 µg/mL (≈ 133 µM).

In the case of `CC1(C)CC[C@]2(C)CC=C3[C@]4(C)CC[C@H]5C(C)(C)[C@@H](O)CC[C@]5(C)[C@H]4CC[C@@]3(C)[C@@H]2C1` [taraxerol], in [5] (unit not given), the “anti-plasmodial IC50” value was more than 100.

On to `C[C@H]1[C@H](C)CC[C@]2(C(=O)O)CC[C@]3(C)C(=CC[C@@H]4[C@@]5(C)CC[C@H](O)C(C)(C)[C@@H]5CC[C@]43C)[C@H]12` [Compound 1, ursolic acid], for which the IC50 in [9] was 10 µM; in series [1], 0.261 µM; in [10] (read-out: IC50 Values, cytotoxicity, PC3, MTT, 24 h, 0.156 µM to 10 µM, triplicate), 0.262 µM; in [2] it was more than 5 µM; in series [12], 10 µM; in series [13], 20 µM. In [11], the “IC50 Values, cytotoxicity, KMST-6” value was “ns”. For the same molecule, the “concentration that inhibits cell proliferation” value in series [14] is listed as not below 160 µg/mL. In addition, the “anti-plasmodial IC50” value in [5] was 6.8 µg/mL.

For `CC(=O)O[C@H]1CC[C@]2(C)[C@H]3CC=C4[C@@H]5[C@@H](C)[C@H](C)CC[C@]5(C(=O)O)CC[C@@]4(C)[C@]3(C)CC[C@H]2C1(C)C` [Compound 3, 3-O-acetyl ursolic acid], the “cytotoxicity IC50, HepG2” value in series [15] was 566.09 µg/mL. The IC50 in series [1] stood at 0.85 µM; in series [2] it was 3.93 µM. The “IC50 Values, cytotoxicity, PC3” value in series [10] is on record as “ns”. Also, the decrease of parasitemia in series [16] was 94.01%. The “cytotoxicity IC50, Hep-G2” value in [17] was 4.73 µg/mL. The midpoint of inhibition in series [3], the IC50 at 24 h, lay at 4.88 µM. In addition, the “cytotoxicity IC50, HEK293” value in series [18] is 366.00 µg/mL.
